# Positions of bridges follow the written chain, without caps; N, C: chain ends. Non-standard residues stand in square brackets, D forms with d. Residues, ends and D or L forms follow the SMILES beside them. Hyp = O=C(O)[C@@H]1C[C@@H](O)CN1; R8 = C=CCCCCCC[C@@](C)(N)C(=O)O; hLeu = CC(C)CC[C@H](N)C(=O)O; S5 = C=CCCC[C@](C)(N)C(=O)O; AEA = NCCOCC(=O)O
# Assays:
# circular dichroism = conditions: phosphate buffer (PB); pH 7.2; 20 °C; 10-50 uM
# [1] = α-Helicity by CD spectroscopy; assay type: physicochemical; conditions: PB pH 7.2, 10-50 µM peptide, 20°C, calculated from [θ]222
# Method: Peptides were dissolved in PB (pH = 7.2) to concentrations ranging from 10 to 50 µM. CD spectra were obtained on a Jasco J-715 spectropolarimeter at 20°C. The spectra were collected using a 0.1 cm path length quartz cuvette with the following measurement parameters: wavelength, 185-255 nm; step resolution, 0.1 nm; speed, 20 nm/min; accumulations, 6; bandwidth, 1 nm. The helical content of each peptide was calculated as reported previously.
# [2] = test system: HCT-116 subcutaneous xenograft; experiment: Subcutaneous HCT-116 xenograft model; assay type: in vivo, BALB/c nude mice
# Method: Four-week-old male BALB/c nude mice (15-20 g) were used to establish subcutaneous and orthotopic xenograft models. A total of 5 × 10^6 HCT-116 cells were subcutaneously inoculated into the right flanks of the mice. Tumor volume was calculated using the following formula: V = (L × W^2)/2, where L is the length and W is the width of the tumor nodules measured with a vernier caliper. […] Drugs were intravenously injected into the mice every 2 days for 2 weeks. In addition, the model of orthotopic CRC xenografts was established. Briefly, mice were anesthetized after fasting for 12 h. Subsequently, the distal anal and rectal mucosa were exposed, and transanal injection of HCT-116 cells (5 × 10^6) was performed using a 30 G sterile needle. The injection was given directly into the rectal mucosa. Tumor growth was investigated, and once the tumors reached ~0.5 cm in size, the mice were randomly divided into two groups. The mice were treated every other day for 2 weeks with tail vein injections of either vehicle (saline) or sPMI-HIF2-1 (2 mg/kg). Body weight was measured before saline or drug injection. All mice were euthanized on day 14 following drug treatment, and the tumors were isolated, photographed, weighed, and measured.
# [3] = test system: MDM2 and MDMX in HCT116 cells; experiment: Western blot of MDM2 and MDMX protein levels; assay type: cell-based, human
# Method: HCT116, MCF-7, or other cells were seeded in six-well plates (4 × 10^5 cells/well) and treated with PROTACs at the indicated concentrations for 24 h. The cells were lysed in RIPA lysis buffer. The protein concentrations were measured using the BCA method and equal amounts of each sample were separated by SDS-PAGE, followed by transfer onto filter membranes. Then, the membranes were blocked and incubated with primary antibodies (Abcam, UK) at 4 °C overnight, followed by incubation with the secondary antibodies. The protein bands were identified using a ChemiDoc MP Imaging System (Bio-Rad, USA).
# [4] = 10 mg/kg i.v. tail vein every other day for 2 weeks, tumor volume
smiles,measurement,setting,value
CC(=O)N[C@H](C(=O)N[C@@H](CO)C(=O)N[C@@H](Cc1ccccc1)C(=O)N[C@]1(C)CCCCCCC=CCCC[C@@](C)(C(=O)NCCOCC(=O)N[C@@H](CC(C)C)C(=O)N[C@@H](C)C(=O)N2C[C@H](O)C[C@H]2C(=O)N[C@@H](Cc2ccc(O)cc2)C(=O)N[C@@H](CCC(C)C)C(=O)N2CCC[C@H]2C(N)=O)NC(=O)[C@H](CC(C)C)NC(=O)[C@H](CC(C)C)NC(=O)[C@H](C)NC(=O)[C@H](Cc2c[nH]c3ccccc23)NC(=O)[C@H](Cc2ccc(O)cc2)NC(=O)[C@H](CCC(=O)O)NC1=O)[C@@H](C)O [SPMI-HIF2-1] (Ac-TSF[R8]EYWALL[S5][AEA]LA[Hyp]Y[hLeu]P-NH2; staple 4-11),helicity,circular dichroism,37%
same,α-helicity (%),[1],37%
same,body weight,[2]; 10 mg/kg i.v. every other day for 2 weeks,no obvious changes in body weight
same,"inhibition of tumor growth, enhanced compared to the 50 mg/kg PMI-HIF1-1 group",[2]; [4],3 fold
same,"inhibition of tumor growth, enhanced compared to the control group",[2]; [4],5 fold
same,turning point of atypical degradation of MDM2 and MDMX,[3],approximately 20 μM
